“Also recorded” adds a separate entry of the source.
Legend:
FGF23 synthesis in bone = assay: Stimulation of FGF23 synthesis in bone; assay type: in vivo; settings: resulting in unsuppressed FGF23 levels
MRGPRD = molecular target: T1, MRGPRD (Mus musculus, UniProt Q91ZB8); settings: young mice, cited from earlier work
T1 construct: young osteocytes which express high levels of MRGPRD; endogenous in cells; host or cells: osteocytes of young mice (in vivo, hind-limb suspension)
T1 sequence (Q91ZB8 1-321): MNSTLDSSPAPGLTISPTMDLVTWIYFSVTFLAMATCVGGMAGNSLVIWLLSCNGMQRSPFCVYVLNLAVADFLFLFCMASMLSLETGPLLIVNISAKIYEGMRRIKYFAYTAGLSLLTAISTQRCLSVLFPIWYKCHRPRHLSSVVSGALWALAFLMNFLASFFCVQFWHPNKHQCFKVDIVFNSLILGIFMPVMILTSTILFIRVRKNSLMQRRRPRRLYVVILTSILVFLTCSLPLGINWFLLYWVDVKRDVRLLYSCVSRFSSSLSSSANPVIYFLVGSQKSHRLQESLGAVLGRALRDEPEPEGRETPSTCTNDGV

WT mice = assay: L-BAIBA or D-BAIBA in the drinking water of WT mice: urine Pi excretion, plasma Pi, plasma intact FGF23; assay type: in vivo, mouse
Procedure: FIG. 5A: 5 mo. old males treated with CO, L-BAIBA, or D-BAIBA in the drinking water for 5 days. FIGS. 5B-5D: same 5 mo. old males from FIG. 5A treated for 30 days, following sacrifice in addition to urine Pi/urine creatinine, plasma Pi and plasma intact FGF23 were determined. Data are mean±SEM, ****p<0.00002, ***p=0.0002, **p=0.002, *p=0.03 vs. CO.
Mouse lines are back-crossed to C57BL6 mice (Charles river laboratories strain ID 027) to reduce variation caused by genetic background and fed a standard chow containing 0.3% bio-available Pi (Teklad 2018S) or for selective experiments a high Pi (HPD diet, 1.2% bio-available Pi, Teklad TD85349). L-BAIBA can be supplied in the drinking water (see Chemical Reagents below). PCR-based genotyping can be done on each experimental animal using gDNA prepared by alkaline lysis from a tail- or ear-snip to verify presence of the Pit1 null, Pit2 null, HA-hPIT1^tg/+ and HSA-Cre^tg/+ alleles.
All blood and urine studies for calcium, creatinine, phosphorus, iPTH, and c/iFGF23 can be performed using commercially available Stanbio kits, Immutopics and R&D ELISAs, or LC-MS/MS-based methods. […] Results can be analyzed using a Perkin Elmer 1420 Multilabel Counter Victor 3 currently located at the Anlyan Center, S-120 or using an Applied Biosystems API6500 QTrap interfaced to a Shimadzu HPLC (LC-20AD, SIL-20AC, CTO-20A) currently located in Anlyan Center, S-260. […]

FGF23 = molecular target: T2, FGF23 (Homo sapiens, UniProt Q9GZV9); settings: individuals with XLH treated with burosumab; cited from earlier work
T2 construct: individuals treated with burosumab (Crysvita), an FGF23-neutralizing antibody therapy for XLH; endogenous in cells; host or cells: patients with XLH (in vivo, circulating hormone)
T2 sequence (Q9GZV9 25-251): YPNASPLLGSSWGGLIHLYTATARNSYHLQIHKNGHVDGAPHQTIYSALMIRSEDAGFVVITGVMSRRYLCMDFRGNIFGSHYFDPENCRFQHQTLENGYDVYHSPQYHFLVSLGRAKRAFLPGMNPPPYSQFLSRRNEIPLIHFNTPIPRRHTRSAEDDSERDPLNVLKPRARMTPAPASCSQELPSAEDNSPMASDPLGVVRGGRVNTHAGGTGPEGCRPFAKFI

Row | Compound | FGF23 synthesis in bone (FGF23 synthesis in bone) | osteocyte survival (MRGPRD; activation of MRGPRD, maintaining mitochondrial integrity) | bone loss caused by hind-limb suspension (MRGPRD) | urine Pi excretion (urine Pi/urine creatinine) (WT mice; 5 mo. old male WT mice, in the drinking water for 5 or 30 days, vs. CO) | FGF23 levels (plasma intact FGF23) (WT mice; 5 month old WT mice treated with L-BAIBA) | fatigue and endurance reported by treated individuals (FGF23)
1 | C[C@@H](CN)C(=O)O [L-BAIBA, (S)-3-amino-2-methylpropanoic acid] | able to stimulate FGF23 synthesis in bone | promotes osteocyte survival | prevents bone loss | increased renal Pi-excretion; also recorded: increases urine Pi excretion; also recorded: caused a renal Pi leak | inappropriately normal | –
2 | burosumab: an FGF23-neutralizing antibody therapy for XLH | – | – | – | – | – | improved fatigue and endurance
